# Assay results published in US20090274676A1, “COMBINATION OF DEHYDROEPIANDROSTERONE OR DEHYDROEPIANDROSTERONE-SULFATE WITH A PDE-4 INHIBITOR FOR TREATMENT OF ASTHMA OR CHRONIC OBSTRUCTIVE PULMONARY DISEASE” (priority 2003, published 2009).
# Where “and” joins values, the source holds several entries; their conditions need not be identical. Equal entries are not always repeated. Marks after values point to notes of the source that are not given here.
# Legend:
# [1] = Solid-state stability with and without lactose at 50° C. (HPLC, DHEA formation); assay type: physicochemical
# Text: These conditions were used to stress the formulation in order to predict its long-term stability results. […] The primary degradant is DHEA. […] The materials on accelerated storage become more cohesive with time as evidenced by clumping during sample weighing for chemical analysis. […] This is a considerable disadvantage since lactose is the most commonly used inhalation excipient for dry powder formulations. Continuing with the virtually anhydrous form would mean limiting formulations to neat powder or undertaking more comprehensive safety studies to use a novel excipient.
# [2] = Respirable dose studies, Andersen cascade impactor; assay type: physicochemical; conditions: 90 L/min
# Experimental: The respirable dose (respirable fraction) studies were performed using a standard sampler cascade impactor (Andersen), consisting of an inlet cone (an impactor pre-separator was substituted here), 9 stages, 8 collection plates, and a backup filter within 8 aluminum stages held together by 3 spring clamps and gasket O-ring seals, where each impactor stage contains multiple precision drilled orifices. When air is drawn through the sampler, multiple jets of air in each stage direct any airborne particles toward the surface of the collection plate for that stage. The size of the jets is constant for each stage, but is smaller in each succeeding stage. Whether a particle is impacted on any given stage depends upon its aerodynamic diameter. The range of particle sizes collected on each stage depends upon on the jet velocity of the stage, and the cut-off point of the previous stage. Any particle not collected on the first stage follows the air stream around the edge of the plate to the next stage, where it is either impacted or passed on to the succeeding stage, and so on, until the velocity of the jet is sufficient for impaction. To prevent particle bounce during the cascade impactor test, the individual impactor plates were coated with a hexane-grease (high vacuum) solution (100:1 ratio). As noted above, the particle size cut-off points on the impactor plates changed at different airflow rates. […] The set-up recommended by the United States Pharmacopeia for testing dry powder inhalers consists of a mouthpiece adapter (silicone in this case) attached to a glass throat (modified 50 ml round-bottom flask) and a glass distal pharynx (induction port) leading top the pre-separator and Andersen sampler. The pre-separator sample includes washings from the mouthpiece adaptor, glass throat, distal glass pharynx and pre-separator. 5 ml acetonitrile:water (1:1 ratio) solvent was placed in the pre-separator before performing the cascade impactor experiment, that were performed in duplicate with 3 different dry powder inhaler devices and at 3 airflow rates, 30, 60 and 90 L/min. The drug collected on the cascade impactor plates were assayed by the HPLC, and a drug mass balance was performed for each Diskhaler and multi-dose cascade impactor experiment consisting of determining the amount of drug left in the blister, the amount of drug remaining in the device (Diskhaler only), the non-respirable amount of the dose retained on the silicone rubber mouth piece adaptor, glass throat, glass distal pharynx and pre-separator, all combined into one sample, and the respirable dose, i.e. Stage 2 through filter impactor plates for airflow rates of 30 and 60 L/min and Stages 1 through filter impactor plates for 90 L/min experiments.
# The cascade impactor experiments were conducted as described in Example 3. Four cascade impactor experiments were done, three with a IDL multi-dose device and one with a Diskhaler, all at 90 L/min. […] However, the % respirable dose was still low. This was likely the result of moisture absorption of the anhydrous form.
# [3] = Multi-dose, oven dried drug for 80 minutes
# [4] = Multi-dose, oven dried drug for 20 hours
smiles,measurement,setting,value
C[C@]12CC[C@H](OS(=O)(=O)[O-])CC1=CC[C@@H]1[C@@H]2CC[C@]2(C)C(=O)CC[C@@H]12.[Na+] [Anhydrous DHEA-S],DHEA % formed,"[1]; 50° C., 1 week",9.817%
same,DHEA % formed,"[1]; 50° C., 2 weeks",14.954%
same,DHEA % formed,"[1]; 50° C., 4 weeks",20.171%
same,DHEA % formed,"[1]; Control, initial (Time=0)",2.774%
same,DHEA % formed,"[1]; Control, sealed, 25° C., 1 week",2.694%
same,DHEA % formed,"[1]; Control, sealed, 25° C., 2 weeks",2.370%
same,DHEA % formed,"[1]; Control, sealed, 25° C., 4 weeks",2.666%
same,Respirable dose of spray-dried compared to micronized anhydrous DHEA-S,[2],two-fold increase
same,Blister (%),[2]; [3],2.8%
same,Preseparator (%),[2]; [3],78.7%
same,Respirable Dose (%),[2]; [3],4.6%
same,Device (%),"[2]; Multi-dose, oven dried drug for 80 minutes, obtained by difference",13.9*^a %
same,Blister (%),[2]; [4],5.0%
same,Preseparator (%),[2]; [4],55.9%
same,Respirable Dose (%),[2]; [4],1.2%
same,Device (%),"[2]; Multi-dose, oven dried drug for 20 hours, obtained by difference",37.9*^a %
same,Blister (%),"[2]; jet-milled drug, Diskhaler",6.6% and 10.1%
same,Device (%),"[2]; jet-milled drug, Diskhaler",22.1% and 13.3%
same,Preseparator (%),"[2]; jet-milled drug, Diskhaler",72.7% and 60.2%
same,Respirable Dose (%),"[2]; jet-milled drug, Diskhaler",2.9% and 2.4%
same,Blister (%),"[2]; jet-milled drug, Multi-dose",3.8% and 3.9%
same,Preseparator (%),"[2]; jet-milled drug, Multi-dose",73.3% and 65.8%
same,Respirable Dose (%),"[2]; jet-milled drug, Multi-dose",3.6% and 3.8%
same,Device (%),"[2]; jet-milled drug, Multi-dose, obtained by difference",19.3*^a % and 26.5*^a %
same,Blisters (%),"[2]; spray-dried drug, Diskhaler",29.0%
same,Device (%),"[2]; spray-dried drug, Diskhaler",11.2%
same,Preseparator (%),"[2]; spray-dried drug, Diskhaler",56.8%
same,Respirable Dose (%),"[2]; spray-dried drug, Diskhaler",5.6%
